Source: the supplement of paper PMC11208160
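Further: IS621 bridge recombinase in Escherichia coli cells against a fixed T5 target plasmid.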

Assay: recombinant UMI read abundance after kanamycin selection (control-corrected) (log10(CPM+1)); higher = more efficient recombination; extreme values may be limits of the assay; sequences stand for … in AGTGCAGAGAAAATCGGCCAGTTTTCTCTGCCTGCAGTCCGCATGCCGTGGGACCCCTTGGGTTCTAACCTGTTGCCTAGATTTATGCAGCGGACTGCCTTTCTCCCAAAGTGATAAACCGG…AGGTTGGTTTCACT; site = the 11-nt donor
How it was run: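 In a pooled Escherichia coli screen for the IS621 bridge recombinase, donor and donor-binding-loop pairs were each placed with a 12-nt UMI on a plasmid bearing a promoterless kanamycin gene. This library was co-electroporated with a target plasmid encoding a fixed target and T7-inducible recombinase, and cells were plated either on IPTG (0.07 mM) plus kanamycin or without selection, in two replicates each. Recombinant UMIs were PCR-amplified across the donor–target junction and sequenced, and counts were converted to CPM, averaged over replicates, scaled by control-derived factors and reported as log10(CPM+1).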
In the case of “CGCCGTACATGGACCGGTTTTCCCGGTAATCCGTATTTGCA (site CGCCGTACTCG)”, the “recombinant UMI read abundance (log10)” value is reported as 0.013.
With “CGCCGTACATGGACCGGTTTTCCCGGTAATCCGTATTTGCA (site CGCCGTACTGG)” the “recombinant UMI read abundance (log10)” value was 0.685.
For “CGCCGTACATGGACCGGTTTTCCCGGTAATCCGTATTTGCA (site CGCCGTACTTG)”, the “recombinant UMI read abundance (log10)” value was 2.07.
With “CGCCGTACATGGACCGGTTTTCCCGGTAATCCGTATTTGGT (site CGCCGTACTAA)” the “recombinant UMI read abundance (log10)” value was 0.0124.
In the case of “CGCCGTACATGGACCGGTTTTCCCGGTAATCCGTATTTGGT (site CGCCGTACTAC)”, the “recombinant UMI read abundance (log10)” value is reported as 0.57.
With “CGCCGTACATGGACCGGTTTTCCCGGTAATCCGTATTTGGT (site CGCCGTACTAG)” the “recombinant UMI read abundance (log10)” value was 0.
With “CGCCGTACATGGACCGGTTTTCCCGGTAATCCGTATTTGGT (site CGCCGTACTAT)” the “recombinant UMI read abundance (log10)” value was 0.321.
For “CGCCTGTCATGGACCGGTTTTCCCGGTAATCCGTATTTGTT (site CGCCTGTCTAA)”, the “recombinant UMI read abundance (log10)” value was 0.902.
In the case of “CGCCTTCCATGGACCGGTTTTCCCGGTAATCCGTATTTGGT (site CGCCTTCCTAC)”, the “recombinant UMI read abundance (log10)” value is reported as 0.0121.
For “CGCGGAACATGGACCGGTTTTCCCGGTAATCCGTATTTGTT (site CGAGGAACTAA)”, the “recombinant UMI read abundance (log10)” value was 0.0752.
With “CGCGGAACATGGACCGGTTTTCCCGGTAATCCGTATTTGTT (site CGCGGAACTAA)” the “recombinant UMI read abundance (log10)” value was 2.39.
In the case of “CGCGGAACATGGACCGGTTTTCCCGGTAATCCGTATTTGTT (site CGGGGAACTAA)”, the “recombinant UMI read abundance (log10)” value is reported as 0.0138.
In the case of “CGCGGAACATGGACCGGTTTTCCCGGTAATCCGTATTTGTT (site CGTGGAACTAA)”, the “recombinant UMI read abundance (log10)” value is reported as 0.00441.
With “CGCGGAGCATGGACCGGTTTTCCCGGTAATCCGTATTTGGC (site CGCGGAGCTGC)” the “recombinant UMI read abundance (log10)” value was 0.884.
In the case of “CGCGGAGCATGGACCGGTTTTCCCGGTAATCCGTATTTGGT (site CGCGGAGCTAC)”, the “recombinant UMI read abundance (log10)” value is reported as 1.14.
With “CGCGTTCCATGGACCGGTTTTCCCGGTAATCCGTATTTGGA (site CGCGTTCCTTC)” the “recombinant UMI read abundance (log10)” value was 0.
In the case of “CGCTCCTCATGGACCGGTTTTCCCGGTAATCCGTATTTGCT (site CGATCATCTAG)”, the “recombinant UMI read abundance (log10)” value is reported as 0.
With “CGCTCCTCATGGACCGGTTTTCCCGGTAATCCGTATTTGCT (site CGCTCCTCTAG)” the “recombinant UMI read abundance (log10)” value was 3.07.
With “CGCTCCTCATGGACCGGTTTTCCCGGTAATCCGTATTTGTG (site CGCTCCTCTCA)” the “recombinant UMI read abundance (log10)” value was 0.976.
In the case of “CGCTTAGCATGGACCGGTTTTCCCGGTAATCCGTATTTGTA (site CGCTTAGCTTA)”, the “recombinant UMI read abundance (log10)” value is reported as 1.88.
With “CGCTTTCCATGGACCGGTTTTCCCGGTAATCCGTATTTGGT (site CGCTTTCCTAC)” the “recombinant UMI read abundance (log10)” value was 0.
In the case of “CGCTTTGCATGGACCGGTTTTCCCGGTAATCCGTATTTGGT (site CGCTTTGCTAC)”, the “recombinant UMI read abundance (log10)” value is reported as 1.08.
In the case of “CGGAAACCATGGACCGGTTTTCCCGGTAATCCGTATTTGAT (site CGGAAACCTAT)”, the “recombinant UMI read abundance (log10)” value is reported as 0.
With “CGGAAACCATGGACCGGTTTTCCCGGTAATCCGTATTTGAT (site CGGCAACCTAT)” the “recombinant UMI read abundance (log10)” value was 0.00975.
For “CGGAAACCATGGACCGGTTTTCCCGGTAATCCGTATTTGAT (site CGGGAACCTAT)”, the “recombinant UMI read abundance (log10)” value was 0.
In the case of “CGGAAACCATGGACCGGTTTTCCCGGTAATCCGTATTTGAT (site CGGTAACCTAT)”, the “recombinant UMI read abundance (log10)” value is reported as 0.
With “CGGAAACCATGGACCGGTTTTCCCGGTAATCCGTATTTGTA (site CGGAAACCTTA)” the “recombinant UMI read abundance (log10)” value was 0.
With “CGGAAACCATGGACCGGTTTTCCCGGTAATCCGTATTTGTA (site CGGAATCCTAA)” the “recombinant UMI read abundance (log10)” value was 0.
In the case of “CGGAAACCATGGACCGGTTTTCCCGGTAATCCGTATTTGTT (site CGGAAACCTAA)”, the “recombinant UMI read abundance (log10)” value is reported as 0.
